Source: US11672265B2, “Egg replacement containing euglena-derived components” (NOBLEGEN, INC., priority 2019, dated 2023)
Where two headings read alike, the source gives them in different places.

What was measured:
[1] = system: microbial growth in non-heat treated biomass; assay type: cell-based, yeast, mold, bacteria; details: refrigerator (4° C.) 5 days, CP 1000 ppm, SB + PS 1000 ppm each, BV 0.25% (w/w)
Method: A biomass stored in the refrigerator at harvested pH (pH 2.75) for 2 days after harvest was chosen for microbial analysis. Four different pH conditions were used for non-heat treated biomass storage, pH 3, 4.5, 5 and 7. Three different antimicrobials (see Table 19 for the names and usage levels) were added to biomass at each pH selected. Control without any antimicrobial agents were also stored at different selected pHs. All the biomass samples were stored in a 4° C. refrigerator for 5 days and a TSA plate assay was done to see the presence of any microbes at the 5 day mark.
Samples without any microbial growth were considered for further storage study. After 16 days of storage, a TSA plating was done on all the heat treated biomass and non-heated biomass with SB+PS at pH 3, 4.5 and 5.

[2] = system: microbes in fresh biomass; test: Treatment of fresh biomass with nisin, TSA plates; assay type: cell-based, bacteria and yeast
Method: Method: Obtained fresh biomass and was washed 1 time with 2.5 times water. The biomass was diluted to 10% (solid content-10.36 w/w %, initial pH was pH 3.35 and the pH was adjusted to 7.2 using 2.5 M NaOH. […] Similarly, about the same amount of biomass without Nisin was also left at both conditions.

Molecule	Microbial growth observed in non-heat treated biomass with antimicrobials ([1]; pH 3)	Microbial growth observed in non-heat treated biomass with antimicrobials ([1]; pH 4.5)	Presence of microbes in biomass treated with nisin ([2]; 70 ppm nisin, biomass pH 7.2, room temperature or 4° C., up to 24 hours)	Prevention of growth of microorganisms in fresh biomass or wet protein concentrate ([2]; 75 ppm of Nisin (conclusion))
CCC(=O)[O-].CCC(=O)[O-].[Ca+2] [CP, Calcium propionate]	yeast	yeast		
nisin			Presence of microbes were found at all storage conditions irrespective of the presence of nisin or storage time	will not be able to prevent the growth of microorganisms
